Measurements as given in patent US10870647B2, “Imidazopyridine derivative, method for preparing same, and pharmaceutical composition containing same as active ingredient for preventing or treating cancer” (DAEGU-GYEONGBUK MEDICAL INNOVATION FOUNDATION, priority 2016, dated 2020).

How the values were obtained:
Assay in all cases: Kinase selectivity, scanMAX Kinase assay panel (DiscoverX), % control at 1 uM
Assay type in all cases: binding
[1] = molecular target: T1, scanMAX Kinase assay panel (Homo sapiens, UniProt Q15303); details: ERBB4; 1 uM; read-out: Percent Control (%)
T1 construct: purchased DiscoverX
Outline: (§1)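 Each kinase was first exposed to the test compound at 1 uM in DMSO. Signal was then normalised to positive and negative controls to give % control. Finally, any enzyme showing <35% control was judged inhibited.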

[2] = molecular target: T2, scanMAX Kinase assay panel (Homo sapiens, UniProt Q8NG66); details: NEK11; 1 uM; read-out: Percent Control (%)
T2 construct: purchased DiscoverX
T2 sequence (Q8NG66 1-645): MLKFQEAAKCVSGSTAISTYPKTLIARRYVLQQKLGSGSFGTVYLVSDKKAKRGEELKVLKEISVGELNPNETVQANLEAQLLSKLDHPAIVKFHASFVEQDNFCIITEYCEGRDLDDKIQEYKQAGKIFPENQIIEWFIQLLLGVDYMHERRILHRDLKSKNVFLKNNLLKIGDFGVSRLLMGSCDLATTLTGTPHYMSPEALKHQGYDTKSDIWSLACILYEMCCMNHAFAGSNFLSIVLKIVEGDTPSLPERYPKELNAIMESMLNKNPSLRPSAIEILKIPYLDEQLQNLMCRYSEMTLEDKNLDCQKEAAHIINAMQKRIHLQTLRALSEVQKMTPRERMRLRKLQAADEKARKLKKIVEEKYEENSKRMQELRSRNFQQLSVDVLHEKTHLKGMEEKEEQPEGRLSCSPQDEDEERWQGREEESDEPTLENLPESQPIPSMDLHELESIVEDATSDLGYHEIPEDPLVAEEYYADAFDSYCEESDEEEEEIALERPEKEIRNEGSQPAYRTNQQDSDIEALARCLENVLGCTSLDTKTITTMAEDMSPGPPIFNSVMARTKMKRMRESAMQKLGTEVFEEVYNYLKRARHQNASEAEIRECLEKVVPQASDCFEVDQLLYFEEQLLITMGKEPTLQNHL
Outline: as §1

[3] = molecular target: T3, scanMAX Kinase assay panel (Homo sapiens, UniProt Q13237); details: PRKG2; 1 uM; read-out: Percent Control (%)
T3 construct: purchased DiscoverX
T3 sequence (Q13237 1-762): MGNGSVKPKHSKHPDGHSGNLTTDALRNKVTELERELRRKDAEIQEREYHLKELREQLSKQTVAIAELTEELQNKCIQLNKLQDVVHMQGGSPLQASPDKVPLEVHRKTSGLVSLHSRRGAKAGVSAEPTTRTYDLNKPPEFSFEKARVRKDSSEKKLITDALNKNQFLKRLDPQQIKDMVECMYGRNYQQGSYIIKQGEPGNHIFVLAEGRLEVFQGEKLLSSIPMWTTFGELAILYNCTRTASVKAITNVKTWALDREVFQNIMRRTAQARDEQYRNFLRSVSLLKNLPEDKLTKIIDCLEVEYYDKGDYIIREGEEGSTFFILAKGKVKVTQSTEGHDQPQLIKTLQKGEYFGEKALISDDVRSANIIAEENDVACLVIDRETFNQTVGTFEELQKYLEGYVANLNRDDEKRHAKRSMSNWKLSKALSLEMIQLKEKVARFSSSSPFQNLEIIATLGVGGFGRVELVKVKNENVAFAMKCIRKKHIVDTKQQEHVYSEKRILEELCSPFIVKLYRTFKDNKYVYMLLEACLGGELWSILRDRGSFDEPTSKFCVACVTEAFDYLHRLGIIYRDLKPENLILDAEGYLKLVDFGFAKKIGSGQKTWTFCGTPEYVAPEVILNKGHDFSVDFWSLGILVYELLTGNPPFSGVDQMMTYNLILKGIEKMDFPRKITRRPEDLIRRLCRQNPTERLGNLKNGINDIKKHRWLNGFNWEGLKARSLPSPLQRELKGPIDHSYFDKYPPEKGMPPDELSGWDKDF
Outline: as §1

[4] = molecular target: T4, scanMAX Kinase assay panel (Homo sapiens, UniProt Q9HCP0); details: CSNK1G1; 1 uM; read-out: Percent Control (%)
T4 construct: purchased DiscoverX
Outline: as §1

[5] = molecular target: T5, scanMAX Kinase assay panel (Homo sapiens, UniProt Q9BRS2); details: RIOK1; 1 uM; read-out: Percent Control (%)
T5 construct: purchased DiscoverX
T5 sequence (Q9BRS2 1-568): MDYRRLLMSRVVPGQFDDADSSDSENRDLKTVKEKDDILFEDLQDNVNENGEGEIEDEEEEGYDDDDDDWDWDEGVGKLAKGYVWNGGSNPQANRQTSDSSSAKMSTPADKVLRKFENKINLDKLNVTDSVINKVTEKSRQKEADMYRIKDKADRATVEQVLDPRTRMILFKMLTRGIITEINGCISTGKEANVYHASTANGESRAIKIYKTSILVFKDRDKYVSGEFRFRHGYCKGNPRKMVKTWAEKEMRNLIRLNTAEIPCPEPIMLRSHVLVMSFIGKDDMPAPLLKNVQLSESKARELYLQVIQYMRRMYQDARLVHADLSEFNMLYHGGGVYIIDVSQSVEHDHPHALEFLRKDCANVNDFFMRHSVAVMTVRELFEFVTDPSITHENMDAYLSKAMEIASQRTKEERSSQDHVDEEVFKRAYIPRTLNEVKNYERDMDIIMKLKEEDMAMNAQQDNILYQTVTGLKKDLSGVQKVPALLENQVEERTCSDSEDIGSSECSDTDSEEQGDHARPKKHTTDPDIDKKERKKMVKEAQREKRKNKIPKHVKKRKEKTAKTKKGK
Outline: as §1

[6] = molecular target: T6, scanMAX Kinase assay panel (Homo sapiens, UniProt Q86Y07); details: VRK2; 1 uM; read-out: Percent Control (%)
T6 construct: purchased DiscoverX
Outline: as §1

T6 sequence (Q86Y07 whole entry): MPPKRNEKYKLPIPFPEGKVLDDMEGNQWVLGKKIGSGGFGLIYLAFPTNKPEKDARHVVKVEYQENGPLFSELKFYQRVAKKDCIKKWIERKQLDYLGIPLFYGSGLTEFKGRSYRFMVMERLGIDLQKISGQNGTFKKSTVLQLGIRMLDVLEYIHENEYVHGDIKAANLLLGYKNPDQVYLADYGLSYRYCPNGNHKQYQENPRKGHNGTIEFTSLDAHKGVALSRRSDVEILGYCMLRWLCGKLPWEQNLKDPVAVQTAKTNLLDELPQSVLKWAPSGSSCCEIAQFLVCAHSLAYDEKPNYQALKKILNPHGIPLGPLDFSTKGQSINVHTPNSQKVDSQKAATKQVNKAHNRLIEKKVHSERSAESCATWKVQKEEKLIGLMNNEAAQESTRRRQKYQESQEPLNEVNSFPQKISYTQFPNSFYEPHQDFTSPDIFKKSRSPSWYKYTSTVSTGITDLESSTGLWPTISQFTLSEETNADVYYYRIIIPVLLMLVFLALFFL
T4 sequence (Q9HCP0 whole entry): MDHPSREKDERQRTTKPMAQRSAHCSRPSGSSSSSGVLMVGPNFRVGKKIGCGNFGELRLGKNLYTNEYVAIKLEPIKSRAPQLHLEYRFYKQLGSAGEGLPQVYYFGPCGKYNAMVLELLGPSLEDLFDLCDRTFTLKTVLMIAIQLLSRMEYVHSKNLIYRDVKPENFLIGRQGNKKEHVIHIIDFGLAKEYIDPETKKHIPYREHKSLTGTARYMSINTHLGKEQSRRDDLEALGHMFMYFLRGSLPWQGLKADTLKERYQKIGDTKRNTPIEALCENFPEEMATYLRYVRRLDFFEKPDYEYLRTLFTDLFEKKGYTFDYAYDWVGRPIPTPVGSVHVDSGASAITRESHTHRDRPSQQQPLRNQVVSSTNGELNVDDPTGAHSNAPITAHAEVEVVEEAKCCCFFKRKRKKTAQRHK
T1 sequence (Q15303 26-1308): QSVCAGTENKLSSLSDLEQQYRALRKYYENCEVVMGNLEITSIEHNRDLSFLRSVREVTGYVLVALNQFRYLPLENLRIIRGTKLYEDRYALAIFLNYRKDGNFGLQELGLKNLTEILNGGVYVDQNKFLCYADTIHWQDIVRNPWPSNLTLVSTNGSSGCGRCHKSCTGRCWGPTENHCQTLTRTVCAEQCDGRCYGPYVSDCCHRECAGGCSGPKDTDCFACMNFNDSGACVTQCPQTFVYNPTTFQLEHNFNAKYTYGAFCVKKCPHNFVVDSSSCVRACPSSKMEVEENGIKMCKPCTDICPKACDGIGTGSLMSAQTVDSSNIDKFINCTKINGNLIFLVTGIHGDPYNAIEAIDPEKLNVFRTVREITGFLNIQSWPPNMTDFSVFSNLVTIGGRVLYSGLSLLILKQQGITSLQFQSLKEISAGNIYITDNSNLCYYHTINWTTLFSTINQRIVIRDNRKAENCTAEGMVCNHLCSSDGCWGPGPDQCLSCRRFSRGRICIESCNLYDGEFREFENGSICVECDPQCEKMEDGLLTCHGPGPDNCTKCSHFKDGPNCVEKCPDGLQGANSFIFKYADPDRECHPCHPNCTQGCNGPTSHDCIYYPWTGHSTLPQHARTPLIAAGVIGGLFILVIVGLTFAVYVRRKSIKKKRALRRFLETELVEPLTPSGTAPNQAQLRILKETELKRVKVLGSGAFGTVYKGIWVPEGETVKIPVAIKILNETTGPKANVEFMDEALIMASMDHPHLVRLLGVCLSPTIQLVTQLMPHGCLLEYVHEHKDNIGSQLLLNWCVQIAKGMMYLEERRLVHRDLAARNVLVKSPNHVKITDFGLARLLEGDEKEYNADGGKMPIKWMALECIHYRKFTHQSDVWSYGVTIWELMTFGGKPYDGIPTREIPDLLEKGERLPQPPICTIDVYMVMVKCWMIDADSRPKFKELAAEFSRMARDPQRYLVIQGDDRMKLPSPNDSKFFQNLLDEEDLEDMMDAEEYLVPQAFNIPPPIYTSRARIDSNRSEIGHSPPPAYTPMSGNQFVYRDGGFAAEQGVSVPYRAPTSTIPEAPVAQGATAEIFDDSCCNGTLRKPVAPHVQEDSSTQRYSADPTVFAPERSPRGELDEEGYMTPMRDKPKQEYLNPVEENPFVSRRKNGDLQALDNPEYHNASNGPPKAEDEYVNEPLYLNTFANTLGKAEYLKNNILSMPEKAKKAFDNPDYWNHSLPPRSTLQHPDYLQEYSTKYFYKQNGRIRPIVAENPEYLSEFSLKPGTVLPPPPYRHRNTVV

Structure (SMILES)	remaining binding at 1 µM [1]	remaining binding at 1 µM [2]	remaining binding at 1 µM [3]	remaining binding at 1 µM [4]	remaining binding at 1 µM [5]	remaining binding at 1 µM [6]
Cc1ccc(C(=O)Nc2ccc(CN3CCN(C)CC3)c(C(F)(F)F)c2)cc1C#Cc1cnc2c(Nc3cnn(C)c3)cccn12 [Example 1, 4-methyl-3-((8-((1-methyl-1H-pyrazol-4-yl)amino)imidazo[1,2-a]pyridin-3-yl)ethynyl)-N-(4-((4-methylpiperazin-1-yl)methyl)-3-(trifluoromethyl)phenyl)benzamide]	0%	13%	75%	73%	77%	86%
Cc1cn(-c2cc(NC(=O)c3ccc(C)c(C#Cc4cnc5c(Nc6cnn(C)c6)cccn45)c3)cc(C(F)(F)F)c2)cn1 [Example 12, 4-methyl-N-(3-(4-methyl-1H-imidazol-1-yl)-5-(trifluoromethyl)phenyl)-3-((8-((1-methyl-1H-pyrazol-4-yl)amino)imidazo[1,2-a]pyridin-3-yl)ethynyl)benzamide]	32%	100%	90%	95%	91%	100%
Cc1ccc(NC(=O)C2(C(=O)Nc3ccc(F)cc3)CC2)cc1C#Cc1cnc2c(Nc3cnn(C(C)C)c3)cccn12 [Example 78]	100%	100%	100%	100%	100%	100%
